Columns and labels:
[1] = target: CFTR (Homo sapiens, UniProt P13569); experiment: standard Ussing Chamber Assay for CFTR potentiator activity; format: cell-based
Method: tert-Butyl N-[(6R,12R)-6-benzyloxy-12-methyl-6,15-bis(trifluoromethyl)-13,19-dioxa-3,4,18-triazatricyclo[12.3.1.12,5]nonadeca-1(18),2,4,14,16-pentaen-17-yl]-N-tert-butoxycarbonyl-carbamate (8.6 g, 11.77 mmol) was dissolved in ethanol (172 mL) then the flask was cycled 3 times between vacuum/nitrogen. Treated the mixture with 10% Pd/C (50% water wet, 1.8 g of 5% w/w, 0.8457 mmol) then cycled 3 times between vacuum/nitrogen and 3 times between vacuum/hydrogen and then stirred vigorously under hydrogen (balloon) at room temperature for 18 hours. The mixture was cycled 3 times between vacuum/nitrogen, filtered over Celite, washing with ethanol, and then the filtrate was evaporated to give 7.3 g of tert-butyl N-tert-butoxycarbonyl-N-[(6R,12R)-6-hydroxy-12-methyl-6,15-bis(trifluoromethyl)-13,19-dioxa-3,4,18-triazatricyclo[12.3.1.12,5]nonadeca-1(18),2,4,14,16-pentaen-17-yl]carbamate an off-white solid. 1H NMR and MS confirmed the expected product. CFTR modulating activity was confirmed using a standard Ussing Chamber Assay for CFTR potentiator activity.

[2] = target: T1, CFTR-mediated short-circuit current in F508del/MF-HBE cells (Homo sapiens, UniProt P13569, DEL508-508); experiment: HBE2 assay: Ussing chamber assay of CFTR-mediated short-circuit currents; format: cell-based; conditions: single fixed concentration 3 μM in combination with 44 nM (6R,12R)-17-amino-12-methyl-6,15-bis(trifluoromethyl)-13,19-dioxa-3,4,18-triazatricyclo[12.3.1.12,5]nonadeca-1(18),2,4,14,16-pentaen-6-ol, 20% human serum
T1 construct: endogenous in cells; host or cells: primary human bronchial epithelial cells from CF subjects (F508del/MF)
Method: Ussing chamber experiments were performed using human bronchial epithelial (HBE) cells derived from CF subjects heterozygous for F508del and a minimal function CFTR mutation (F508del/MF-HBE) and cultured as previously described (Neuberger T, Burton B, Clark H, Van Goor F Methods Mol Biol 2011:741:39-54). After four days the apical media was removed, and the cells were grown at an air liquid interface for >14 days prior to use.
To isolate the CFTR-mediated short-circuit (ISC) current, F508del/MF-HBE grown on Costar® Snapwell™ cell culture inserts were mounted in an Ussing chamber and the transepithelial ISC was measured under voltage-clamp recording conditions (Vhold=0 mV) at 37° C. The basolateral solution contained (in mM) 145 NaCl, 0.83K2HPO4, 3.3 KH2PO4, 1.2 MgCl2, 1.2 CaCl2), 10 Glucose, 10 HEPES (pH adjusted to 7.4 with NaOH) and the apical solution contained (in mM) 145 NaGluconate, 1.2 MgCl2, 1.2 CaCl2), 10 glucose, 10 HEPES (pH adjusted to 7.4 with NaOH) and 30 μM amiloride to block the epithelial sodium channel. […] The CFTR-mediated ISC (μA/cm^2) for each condition was determined from the peak forskolin response to the steady-state current following inhibition.
The activity of the CFTR corrector compounds on the CFTR-mediated ISC was determined in Ussing chamber studies as described above. […]

T1 sequence (P13569 with tags, fused parts or gaps DEL508-508): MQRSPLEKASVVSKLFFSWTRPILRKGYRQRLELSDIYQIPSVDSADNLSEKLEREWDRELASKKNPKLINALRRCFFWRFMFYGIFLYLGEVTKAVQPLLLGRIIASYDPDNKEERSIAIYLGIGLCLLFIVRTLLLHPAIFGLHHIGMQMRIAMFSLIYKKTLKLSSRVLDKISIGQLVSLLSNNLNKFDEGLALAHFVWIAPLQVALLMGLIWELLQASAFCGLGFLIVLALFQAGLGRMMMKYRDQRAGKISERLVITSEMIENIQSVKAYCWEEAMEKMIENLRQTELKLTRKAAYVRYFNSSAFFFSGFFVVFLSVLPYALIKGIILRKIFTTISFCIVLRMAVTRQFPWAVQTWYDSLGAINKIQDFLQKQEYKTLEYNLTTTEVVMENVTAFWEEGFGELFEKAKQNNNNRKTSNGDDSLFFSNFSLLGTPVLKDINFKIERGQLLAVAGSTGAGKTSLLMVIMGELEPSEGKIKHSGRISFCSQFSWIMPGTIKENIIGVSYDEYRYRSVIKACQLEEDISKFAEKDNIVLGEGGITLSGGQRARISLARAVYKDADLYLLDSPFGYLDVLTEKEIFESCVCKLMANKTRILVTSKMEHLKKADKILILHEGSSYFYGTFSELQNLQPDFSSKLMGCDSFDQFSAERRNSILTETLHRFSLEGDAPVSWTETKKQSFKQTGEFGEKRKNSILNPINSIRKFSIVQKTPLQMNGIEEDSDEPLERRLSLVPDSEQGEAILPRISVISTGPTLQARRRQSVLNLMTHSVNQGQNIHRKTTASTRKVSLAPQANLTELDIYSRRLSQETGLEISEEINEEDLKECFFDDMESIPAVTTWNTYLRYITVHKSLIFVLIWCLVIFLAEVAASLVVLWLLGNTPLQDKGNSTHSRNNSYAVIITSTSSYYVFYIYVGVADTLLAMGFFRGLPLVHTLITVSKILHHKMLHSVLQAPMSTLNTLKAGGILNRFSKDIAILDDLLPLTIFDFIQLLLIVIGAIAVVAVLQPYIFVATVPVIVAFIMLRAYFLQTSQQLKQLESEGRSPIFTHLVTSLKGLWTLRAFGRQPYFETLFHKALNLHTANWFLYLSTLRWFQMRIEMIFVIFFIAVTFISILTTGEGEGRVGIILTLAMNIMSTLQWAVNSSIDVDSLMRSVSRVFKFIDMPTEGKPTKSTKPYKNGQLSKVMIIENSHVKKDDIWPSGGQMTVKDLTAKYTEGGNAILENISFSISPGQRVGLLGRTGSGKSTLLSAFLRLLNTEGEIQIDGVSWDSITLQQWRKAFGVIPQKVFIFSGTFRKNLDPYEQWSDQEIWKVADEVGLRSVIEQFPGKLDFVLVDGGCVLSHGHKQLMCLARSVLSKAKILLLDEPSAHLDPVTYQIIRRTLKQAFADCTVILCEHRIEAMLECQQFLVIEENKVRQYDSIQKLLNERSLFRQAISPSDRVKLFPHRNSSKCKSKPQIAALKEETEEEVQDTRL
Sequence of CFTR (P13569 whole entry, species assumed): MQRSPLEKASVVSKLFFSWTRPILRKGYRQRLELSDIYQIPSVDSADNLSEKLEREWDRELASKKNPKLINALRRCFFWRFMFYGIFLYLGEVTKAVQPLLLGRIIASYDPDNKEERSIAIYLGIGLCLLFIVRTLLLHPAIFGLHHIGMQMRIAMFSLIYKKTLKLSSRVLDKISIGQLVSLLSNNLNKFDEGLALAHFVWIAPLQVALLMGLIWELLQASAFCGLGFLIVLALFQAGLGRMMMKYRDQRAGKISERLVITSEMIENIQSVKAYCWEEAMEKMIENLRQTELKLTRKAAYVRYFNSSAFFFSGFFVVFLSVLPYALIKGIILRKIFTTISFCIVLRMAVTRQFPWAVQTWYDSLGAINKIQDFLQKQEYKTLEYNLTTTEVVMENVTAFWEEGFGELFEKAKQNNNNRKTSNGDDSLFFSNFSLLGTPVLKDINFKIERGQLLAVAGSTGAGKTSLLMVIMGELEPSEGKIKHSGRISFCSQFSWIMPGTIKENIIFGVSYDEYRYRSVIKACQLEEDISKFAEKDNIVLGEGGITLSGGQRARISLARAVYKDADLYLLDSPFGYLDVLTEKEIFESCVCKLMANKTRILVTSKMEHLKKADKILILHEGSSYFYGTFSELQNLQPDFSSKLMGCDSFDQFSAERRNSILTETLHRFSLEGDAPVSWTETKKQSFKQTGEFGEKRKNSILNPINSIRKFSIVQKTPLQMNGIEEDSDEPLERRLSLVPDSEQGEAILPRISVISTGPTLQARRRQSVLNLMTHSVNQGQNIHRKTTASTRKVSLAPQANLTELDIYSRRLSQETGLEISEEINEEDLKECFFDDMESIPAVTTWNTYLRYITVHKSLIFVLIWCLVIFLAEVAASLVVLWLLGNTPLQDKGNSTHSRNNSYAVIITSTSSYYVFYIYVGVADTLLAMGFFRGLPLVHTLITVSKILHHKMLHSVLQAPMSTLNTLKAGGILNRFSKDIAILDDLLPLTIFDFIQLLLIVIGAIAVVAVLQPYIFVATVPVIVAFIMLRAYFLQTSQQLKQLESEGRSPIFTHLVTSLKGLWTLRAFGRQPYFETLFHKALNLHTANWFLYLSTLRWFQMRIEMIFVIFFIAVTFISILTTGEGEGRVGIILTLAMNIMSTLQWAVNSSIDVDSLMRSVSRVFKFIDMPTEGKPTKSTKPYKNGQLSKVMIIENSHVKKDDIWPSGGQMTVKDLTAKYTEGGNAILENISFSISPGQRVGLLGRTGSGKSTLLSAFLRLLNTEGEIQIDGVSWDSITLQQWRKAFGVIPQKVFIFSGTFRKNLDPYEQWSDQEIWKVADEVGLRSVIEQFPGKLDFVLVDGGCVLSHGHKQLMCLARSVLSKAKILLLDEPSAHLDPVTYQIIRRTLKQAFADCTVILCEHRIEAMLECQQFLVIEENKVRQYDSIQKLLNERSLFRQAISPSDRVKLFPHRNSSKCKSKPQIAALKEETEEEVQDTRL

Row | CFTR modulating activity (CFTR potentiator activity) [1] | HBE2 Activity at 3 μM [2] | SMILES
1 | confirmed | – | C[C@@H]1CCCCC[C@](O)(C(F)(F)F)C2=NN=C(O2)c2nc(c(C(F)(F)F)cc2N)O1 [(6R,12R)-17-amino-12-methyl-6,15-bis(trifluoromethyl)-13,19-dioxa-3,4,18-triazatricyclo[12.3.1.12,5]nonadeca-1(18),2,4,14,16-pentaen-6-ol]
2 | – | +++ (+++ is >60%) | Cc1cccc(C)c1-c1cc2nc(n1)NS(=O)(=O)c1cccc(c1)C(=O)N(C1CC3(CC(NC(=O)OC(C)C)C3)C1)[C@H](CC(C)(C)C)CC2 (stereo partly drawn) [Compound 69]
3 | – | +++ (+++ is >60%) | Cc1cccc(C)c1-c1cc2nc(n1)NS(=O)(=O)c1cccc(c1)C(=O)N(Cc1cncc(N(C)C3CCC3)n1)[C@H](CC(C)(C)C)CC2 [Compound 72]
